From paper PMC4536076, “Chemical Library Screening and Structure-Function Relationship Studies Identify Bisacodyl as a Potent and Selective Cytotoxic Agent Towards Quiescent Human Glioblastoma Tumor Stem-Like Cells” (PLoS ONE, 2015)
Where a name gives a salt, the structure may show the parent alone.

System: quiescent TG1 GSCs
Details: not given
Experimental: (§1) Proliferating or quiescent TG1 GSCs were seeded (30 000 and 40 000 viable cells/well, respectively) into 96-well opaque bottom plates (Greiner) with the Biomek FX robot (Beckman Coulter). Each compound from the Prestwick Library was then added (final concentration: 50 μM; 1% DMSO). Each molecule was tested once. Negative control wells (12/96 per assay plate) contained cells treated with 1% DMSO (final concentration) and positive control wells (4/96 per assay plate) contained cells treated with the fungal toxin ophiobolin A (Sigma Aldrich) at 50 μM with 1% DMSO. […] Luminescence in each well was measured with the Victor3 plate reader (PerkinElmer).
(§2) Relative ATP levels in each well were determined by calculating the percentage of luminescent signal in the well with respect to the average signal measured in negative control wells.
(§3) Primary screen hits were further tested in duplicate, at two concentrations (50 and 5 μM) on proliferating and quiescent TG1 GSCs. Cell plating and treatment with compounds were as for the primary screen. Hit selection/confirmation criteria for quiescent cells were as described above.

Compound	Activity on quiescent TG1 GSCs (hit compounds reducing ATP levels)
C[C@@H]1[C@H](O)[C@@H](C)/C=C/C=C/CC/C=C/C=C/C=C/C=C/C(O[C@H]2O[C@H](C)[C@@H](O)[C@H](N)[C@@H]2O)CC2O[C@](O)(CC(O)C(O)CCC(O)CC(O)CC(O)CC(=O)O[C@H]1C)CC(O)C2C(=O)O (some centres unmarked) [Nystatine]	yes

Same assay, conditions: primary screen, 50 μM, 24 h

Compound	Activity on quiescent TG1 GSCs (hit compounds reducing ATP levels)	Activity on quiescent TG1 CSCs (hit compounds increasing ATP levels)
CCCCC(CC)CNC(=N)NC(=N)NCCCCCCNC(=N)NC(=N)NCC(CC)CCCC (centres unmarked) [Alexidine dihydrochloride]	yes	
CCCCc1oc2ccccc2c1C(=O)c1cc(I)c(OCCN(CC)CC)c(I)c1 [Amiodarone hydrochloride]	yes	
CCCCCC[C@H]1C(=O)O[C@H](C)[C@H](NC(=O)c2cccc(NC=O)c2O)C(=O)O[C@@H](C)[C@@H]1OC(=O)CC(C)C [Antimycin A]	yes	
CCCCCCC[N+](CC)(CC)CCCCc1ccc(Cl)cc1.Cc1ccc(S(=O)(=O)[O-])cc1 [Clofilium tosylate]	yes	
O=C(O)c1cc(-c2ccc(F)cc2F)ccc1O [Diflunisal]	yes	
C[C@]12CC[C@H](O)C[C@H]1CC[C@@H]1[C@@H]2CC[C@]2(C)[C@@H](C3=CC(=O)OC3)CC[C@]12O [Digitoxigenin]	yes	
COc1cc2nc(N3CCN(C(=O)C4COc5ccccc5O4)CC3)nc(N)c2cc1OC (centres unmarked) [Doxazosin mesylate]	yes	
O=c1c2ccccc2[se]n1-c1ccccc1 [Ebselen]	yes	
Clc1ccc(COC(Cn2ccnc2)c2ccc(Cl)cc2Cl)cc1 (centres unmarked) [Econazole nitrate]	yes	
CCOc1ccc(Cc2nccc3cc(OCC)c(OCC)cc23)cc1OCC [Ethaverine hydrochloride]	yes	
CCc1cc(C(N)=S)ccn1 [Ethionamide]		yes
O=C(O)c1ccccc1Nc1cccc(C(F)(F)F)c1 [Flufenamic acid]	yes	
Fc1ccc(C(c2ccc(F)cc2)N2CCN(C/C=C/c3ccccc3)CC2)cc1 [Flunarizine dihydrochloride]	yes	
CC(C)C(=O)Nc1ccc([N+](=O)[O-])c(C(F)(F)F)c1 [Flutamide]	yes	
CCCCN(CCCC)CCC(O)c1cc2c(Cl)cc(Cl)cc2c2cc(C(F)(F)F)ccc12 (centres unmarked) [Halofantrine hydrochloride]	yes	
CC[C@H](c1ccc(O)cc1)[C@@H](CC)c1ccc(O)cc1 [Hexestrol]	yes	
c1ccc2c(c1)OCC(C1=NCCN1)O2 (centres unmarked) [Idazoxan hydrochloride]		yes

Compound	Activity on quiescent TG1 GSCs (hit compounds reducing ATP levels)	Activity on quiescent TG1 CSCs (hit compounds increasing ATP levels)
CCCCCN(CCCCC)C(=O)C(CCC(=O)[O-])NC(=O)c1ccc(Cl)c(Cl)c1.[Na+] (centres unmarked) [Lorglumide sodium salt]		yes
CC[C@H](C)C(=O)O[C@H]1C[C@@H](C)C=C2C=C[C@H](C)[C@H](CC[C@@H]3C[C@@H](O)CC(=O)O3)[C@H]21 [Lovastatin]		yes
CC[C@@]1([C@H]2O[C@H]([C@H]3O[C@@](O)(CO)[C@H](C)C[C@@H]3C)C[C@H]2C)CC[C@H]([C@@]2(C)CC[C@]3(C[C@H](O)[C@@H](C)[C@@H]([C@H](C)[C@H](OC)[C@@H](C)C(=O)[O-])O3)O2)O1.[Na+] [Monensin sodium salt]	yes	
O=C(Nc1ccc([N+](=O)[O-])cc1Cl)c1cc(Cl)ccc1O [Niclosamide]	yes	
C[C@@H]1O[C@@H](O[C@@H]2C=C3CC[C@@H]4[C@H](CC[C@]5(C)[C@@H](c6ccc(=O)oc6)CC[C@]45O)[C@@]3(C)CC2)[C@H](O)[C@H](O)[C@H]1O [Proscillaridin A]	yes	
Cc1cc(/C=C/c2ccc3cc(N(C)C)ccc3[n+]2C)c(C)n1-c1ccccc1.Cc1cc(/C=C/c2ccc3cc(N(C)C)ccc3[n+]2C)c(C)n1-c1ccccc1.O=C([O-])c1cc2ccccc2c(Cc2c(O)c(C(=O)[O-])cc3ccccc23)c1O [Pyvinium pamoate]	yes	
COC(=O)[C@H]1[C@H]2C[C@@H]3c4[nH]c5cc(OC)ccc5c4CCN3C[C@H]2C[C@@H](OC(=O)/C=C/c2cc(OC)c(OC)c(OC)c2)[C@@H]1OC [Rescinnamin]	yes	
CO[C@H]1/C=C/O[C@@]2(C)Oc3c(C)c(O)c4c(O)c(c(/C=N/N5CCN(C)CC5)c(O)c4c3C2=O)NC(=O)/C(C)=C\C=C\[C@H](C)[C@H](O)[C@@H](C)[C@@H](O)[C@@H](C)[C@H](OC(C)=O)[C@@H]1C [Rifampicin]		yes
Br.C[N+]1([O-])[C@@H]2CC(OC(=O)[C@H](CO)c3ccccc3)C[C@H]1[C@@H]1O[C@@H]12 (some centres unmarked) [Scopolamin-N-oxide hydrobromide]		yes
CCC(C)(C)C(=O)O[C@H]1C[C@@H](C)C=C2C=C[C@H](C)[C@H](CC[C@@H]3C[C@@H](O)CC(=O)O3)[C@H]21 [Simvastatin]	yes	
C[C@]12CC[C@H]3[C@@H](CC[C@]4(O)C[C@@H](O)CC[C@]34C=O)[C@@]1(O)CC[C@@H]2C1=CC(=O)OC1 [Strophanthidin]	yes	
C[C@@H]1O[C@@H](O[C@H]2C[C@@H](O)[C@]3(CO)[C@H]4[C@H](O)C[C@]5(C)[C@@H](C6=CC(=O)OC6)CC[C@]5(O)[C@@H]4CC[C@]3(O)C2)[C@H](O)[C@H](O)[C@H]1O.O.O.O.O.O.O.O.O [Strophantine octahydrate]	yes	
Cc1c(Cl)cccc1Nc1ccccc1C(=O)O [Tolfenamic acid]	yes	
NC[C@H]1CC[C@H](C(=O)O)CC1 [Tranexamic acid]		yes
CN1C(=O)OC(C)(C)C1=O [Trimethadione]		yes
(S)-(-)-Atenolol		yes
Meclocycline sulfosalicylate	yes	

System: proliferating TG1 GSCs
Details: primary screen, 50 μM, 24 h
Experimental: as §1, §2, §3

Compound	Activity on proliferating TG1 GSCs (hit compounds reducing ATP levels)	Activity on proliferating TG1 CSCs (hit compounds increasing ATP levels)
CCCCC(CC)CNC(=N)NC(=N)NCCCCCCNC(=N)NC(=N)NCC(CC)CCCC (centres unmarked) [Alexidine dihydrochloride]	yes	
CN(C)c1nc(N(C)C)nc(N(C)C)n1 [Altretamine]		yes
CCCCc1oc2ccccc2c1C(=O)c1cc(I)c(OCCN(CC)CC)c(I)c1 [Amiodarone hydrochloride]	yes	
[H]/N=C(\N/C(=N/[H])NCCCCCCNC(=N)NC(=N)Nc1ccc(Cl)cc1)Nc1ccc(Cl)cc1 [Chlorhexidine]	yes	
Oc1c(I)cc(Cl)c2cccnc12 [Clioquinol]	yes	
Nc1ncnc2c1ncn2[C@@H]1O[C@@H]2COP(=O)(O)O[C@H]2[C@H]1O [Cyclic AMP]		yes
C[C@H]1O[C@@H](O[C@H]2[C@@H](O)C[C@H](O[C@H]3[C@@H](O)C[C@H](O[C@H]4CC[C@@]5(C)[C@H](CC[C@@H]6[C@@H]5C[C@@H](O)[C@]5(C)[C@@H](C7=CC(=O)OC7)CC[C@]65O)C4)O[C@@H]3C)O[C@@H]2C)C[C@H](O)[C@@H]1O [Digoxin]	yes	
CN(C)[C@@H]1C(O)=C(C(N)=O)C(=O)[C@@]2(O)C(O)=C3C(=O)c4c(O)ccc(Cl)c4[C@@H](O)[C@H]3C[C@@H]12.Cl [Dimeclocycline hydrochloride]	yes	
CC(C(=O)O)c1ccc(N2Cc3ccccc3C2=O)cc1 (centres unmarked) [Indoprofen]	yes	
Cc1cccc(C)c1NC(=O)CN1CCN(CCCC(c2ccc(F)cc2)c2ccc(F)cc2)CC1 [Lidoflazine]	yes	
CN1CCCC(CC2c3ccccc3Sc3ccccc32)C1 (centres unmarked) [Metixene hydrochloride]	yes	
CNCCC=C1c2ccccc2C=Cc2ccccc21 [Norcyclobenzaprine]	yes	
OCCN1CCN(CCCN2c3ccccc3Sc3ccc(Cl)cc32)CC1 [Perphenazine]	yes	
CC(COc1ccccc1)N(CCCl)Cc1ccccc1 (centres unmarked) [Phenoxybenzamine hydrochloride]		yes
CCN1CCN(C(=O)N[C@@H](C(=O)N[C@@H]2C(=O)N3[C@@H]2SC(C)(C)[C@@H]3C(=O)O)c2ccccc2)C(=O)C1=O [Piperacillin sodium salt]	yes	
COc1cc(/C=C/C(=O)N2CCC=CC2=O)cc(OC)c1OC [Piperlongumine]	yes	
CCC1(c2ccccc2)C(=O)NCNC1=O [Primidone]		yes
CC(C)(Sc1cc(C(C)(C)C)c(O)c(C(C)(C)C)c1)Sc1cc(C(C)(C)C)c(O)c(C(C)(C)C)c1 [Probucol]		yes
CNCCCC1c2ccccc2C=Cc2ccccc21 [Protriptyline hydrochloride]	yes	
CSc1ccc2c(c1)N(CCC1CCCCN1C)c1ccccc1S2 (centres unmarked) [Thioridazine hydrochloride]	yes	
C[C@H](CCC(=O)O)[C@H]1CC[C@H]2[C@@H]3[C@@H](O)C[C@@H]4C[C@H](O)CC[C@]4(C)[C@H]3CC[C@]12C [Urosiol]		yes
